The values that follow come from publication PMC7138916 (Pharmacology Research & Perspectives, 2020).

Series [1] can be described thus: Rat pharmacokinetic study, IV single bolus. The note with it: male, Sprague-Dawley, in vivo, iv.
The conditions of series [2]: cited from earlier work.
Series [3] can be described thus: Rat brain and blood microdialysis at steady state. Conditions: for concentration at 6 h: male, Sprague-Dawley, rat, in vivo, iv, C m,brain, steady‐state unbound concentration in brain (right striatum), microdialysis, IV infusion, mean ± SD.
Another series addresses human P‐gp (MDR1‐MDCK) (Homo sapiens, UniProt P08183). The series is described as follows: Bidirectional permeability and efflux ratio in MDR1‐MDCK cells. Conditions: MDR1‐MDCK cell line, P app(B–A)/P app(A–B). It counts as in vitro ADME.
Another series addresses human P-gp (MDR1) (Homo sapiens, UniProt P08183). Described as above. In kind it is in vitro ADME. The note with it: human; for Papp A→B at 2 h, 1 μmol/L / Papp B→A at 2 h, 1 μmol/L: MDCK-MDR1; for efflux ratio at 2 h, 1 μmol/L: MDCK-MDR1, Efflux ratio, MDR1‐MDCK cell line, P app(B–A)/P app(A–B).
The nature of series [4]: Bidirectional permeability and efflux ratio in Caco‐2 cells. In kind it is in vitro ADME, human. The note with it: human; for Papp A→B at 2 h, 5 μmol/L / Papp B→A at 2 h, 5 μmol/L: Caco-2; for efflux ratio at 2 h, 5 μmol/L: Caco-2, Efflux ratio, Caco‐2 cell line, P app(B–A)/P app(A–B). A general note: Caco-2 cells form a polarised layer with tight junctions and transporters.

For the next series, the system named is Caco‐2 cell line. The description is as above. In kind it is in vitro ADME, human. Conditions: for Efflux ratio: Caco‐2 cell line, P app(B–A)/P app(A–B).
Series [5] can be described thus: Bidirectional permeability in parental MDCK cells. In kind it is in vitro ADME, Canine. Conditions: dog, MDCK.
The subject of another series is MDCK cell line. The series is described as follows: Bidirectional permeability in parental MDCK cells. It counts as in vitro ADME, Canine. Conditions: MDCK cell line, 1 μmol/L, 2 hours, 10 uM Cyclosporin A, n = 4.
Series [6] relates to efflux transporters (eg, P‐gp, BCRP, MRPs). The series is described as follows: Classification as efflux transporter substrate. Conditions: for Efflux transporter substrate: Yes/No; for Class (based on membrane permeability and ER value): parental MDCK, MDR1‐MDCK, and Caco‐2 cell lines.

A value given as a limit tells only on which side of the number the result lay.

Chain of human P‐gp (MDR1‐MDCK) (P08183 whole entry): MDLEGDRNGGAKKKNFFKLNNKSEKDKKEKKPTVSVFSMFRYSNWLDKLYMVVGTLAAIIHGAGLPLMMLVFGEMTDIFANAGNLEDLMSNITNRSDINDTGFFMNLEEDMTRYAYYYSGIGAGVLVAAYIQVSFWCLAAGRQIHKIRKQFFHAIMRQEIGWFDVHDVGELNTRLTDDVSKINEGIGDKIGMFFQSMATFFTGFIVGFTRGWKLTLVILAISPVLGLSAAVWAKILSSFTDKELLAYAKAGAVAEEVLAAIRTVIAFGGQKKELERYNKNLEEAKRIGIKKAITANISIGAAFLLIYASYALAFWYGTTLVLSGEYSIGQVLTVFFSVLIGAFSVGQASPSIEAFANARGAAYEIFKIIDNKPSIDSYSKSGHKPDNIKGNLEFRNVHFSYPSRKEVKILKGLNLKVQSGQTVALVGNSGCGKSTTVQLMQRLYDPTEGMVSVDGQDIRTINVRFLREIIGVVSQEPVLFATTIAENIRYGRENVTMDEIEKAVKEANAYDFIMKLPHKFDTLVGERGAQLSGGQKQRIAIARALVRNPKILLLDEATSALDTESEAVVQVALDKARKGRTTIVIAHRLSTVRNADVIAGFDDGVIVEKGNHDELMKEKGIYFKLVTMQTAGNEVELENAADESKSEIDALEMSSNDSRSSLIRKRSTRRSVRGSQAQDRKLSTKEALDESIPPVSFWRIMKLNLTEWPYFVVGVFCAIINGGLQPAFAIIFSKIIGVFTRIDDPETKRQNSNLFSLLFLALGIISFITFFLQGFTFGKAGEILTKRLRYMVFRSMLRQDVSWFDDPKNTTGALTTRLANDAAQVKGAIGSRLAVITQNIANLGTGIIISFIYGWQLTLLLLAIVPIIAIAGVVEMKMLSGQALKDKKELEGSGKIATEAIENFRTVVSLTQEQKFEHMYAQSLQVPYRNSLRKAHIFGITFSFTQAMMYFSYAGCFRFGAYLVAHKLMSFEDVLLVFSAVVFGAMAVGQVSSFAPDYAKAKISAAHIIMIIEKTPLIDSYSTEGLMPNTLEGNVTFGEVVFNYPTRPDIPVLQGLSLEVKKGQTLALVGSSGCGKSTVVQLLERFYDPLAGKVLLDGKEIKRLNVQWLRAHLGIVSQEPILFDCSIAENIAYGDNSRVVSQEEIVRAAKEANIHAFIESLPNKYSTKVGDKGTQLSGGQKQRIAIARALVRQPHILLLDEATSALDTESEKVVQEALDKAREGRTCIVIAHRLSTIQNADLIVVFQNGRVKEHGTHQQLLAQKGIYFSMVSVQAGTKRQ
Chain of human P-gp (MDR1) (P08183 whole entry): as above

In series [1], `Cn1c(=O)c2[nH]cnc2n(C)c1=O` [Theophylline, theophylline] gave a Vd of 0.453 ± 0.048 L/kg, a clearance of 1.58 ± 0.52 mL/min/kg and a half-life of 3.42 ± 1.02 h. Further, in [2], the “reported mean values of rat plasma CL” value is 2.39 mL/min/kg. The concentration at 6 h in series [3] stood at 4520 ± 2110 nM.

As to `Nc1nc2[nH]cc(CCc3ccc(C(=O)N[C@@H](CCC(=O)O)C(=O)O)cc3)c2c(=O)[nH]1` [Pemetrexed, pemetrexed], on human P‐gp (MDR1‐MDCK), the Efflux ratio was determined as 0.623. Besides, the Efflux ratio entry on human P‐gp (MDR1‐MDCK) (listed as pemetrexed) is on record as “less than 2.0”. For the same compound, on human P-gp (MDR1), the Papp A→B at 2 h, 1 μmol/L stood at 0.709 ± 0.236 ×10⁻⁶ cm/s and the Papp B→A at 2 h, 1 μmol/L is 0.442 ± 0.252 ×10⁻⁶ cm/s. Besides, in series [1], the Vd was determined as 0.637 ± 0.272 L/kg, the clearance came to 14 ± 1.8 mL/min/kg and the half-life was 4.97 ± 1.15 h. Also, in [4], the Papp A→B at 2 h, 5 μmol/L turned out to be 0.392 ± 0.207 ×10⁻⁶ cm/s; the Papp B→A at 2 h, 5 μmol/L was determined as 0.707 ± 0.443 ×10⁻⁶ cm/s; the efflux ratio at 2 h, 5 μmol/L was less than 2. Also, the Efflux ratio in the series on Caco‐2 cell line worked out at 1.81. In series [5], the Papp A→B at 2 h, 1 μmol/L was determined as 0.452 ± 0.092 ×10⁻⁶ cm/s; the Papp B→A at 2 h, 1 μmol/L is 0.793 ± 0.148 ×10⁻⁶ cm/s; the Papp at 2 h, 1 μmol/L is 0.623 ± 0.215 ×10⁻⁶ cm/s. Further, the “Average P app” value in the series with MDCK cell line is recorded as 0.623 10^−6 cm/s. In [3] (brain lower than blood, rat microdialysis), the “difference in steady‐state unbound drug concentrations between the brain and blood” value is 86 fold. The concentration at 6 h in series [3] is 31.3 ± 19.3 nM. In series [6], the Efflux transporter substrate result was “Yes (?)”; the “Class (based on membrane permeability and ER value)” value (“Class” for short) is recorded as “Class II”.

Consider `CN/C(=N/CCSCc1nc[nH]c1C)NC#N` [Cimetidine], for which the Efflux ratio on human P‐gp (MDR1‐MDCK) worked out at 1.68. On human P-gp (MDR1), the Papp A→B at 2 h, 1 μmol/L is 1.91 ± 0.93 ×10⁻⁶ cm/s; the Papp B→A at 2 h, 1 μmol/L amounted to 3.22 ± 0.389 ×10⁻⁶ cm/s; the efflux ratio at 2 h, 1 μmol/L is less than 2. In series [1], this compound showed a Vd of 3.3 ± 1.93 L/kg, a clearance of 53.7 ± 4.8 mL/min/kg and a half-life of 5.91 ± 4.71 h. Besides, in series [4], the Papp A→B at 2 h, 5 μmol/L was found to be 0.706 ± 0.204 ×10⁻⁶ cm/s and the Papp B→A at 2 h, 5 μmol/L stood at 6.49 ± 1.37 ×10⁻⁶ cm/s. The Efflux ratio with Caco‐2 cell line was 9.20. The Efflux ratio result with Caco‐2 cell line (listed as cimetidine) was “greater than 2.0”. For the same compound, the “ER after treatment with novobiocin” value with Caco‐2 cell line (Caco‐2 cells treated with novobiocin (BCRP inhibitor), supplemental data) was 3.29. Moreover, in series [5], the Papp A→B at 2 h, 1 μmol/L worked out at 0.963 ± 0.26 ×10⁻⁶ cm/s; the Papp B→A at 2 h, 1 μmol/L was determined as 2.37 ± 0.16 ×10⁻⁶ cm/s; the Papp at 2 h, 1 μmol/L was 1.67 ± 0.78 ×10⁻⁶ cm/s. Besides, the concentration at 6 h in series [3] came out at 1420 ± 370 nM. Also, in [6], the Efflux transporter substrate result is “Yes”; the “Class” value is listed as “Class II”.

In the case of `CN(C)CCCC1(c2ccc(F)cc2)OCc2cc(C#N)ccc21` (stereo not shown) [Citalopram, citalopram], on human P‐gp (MDR1‐MDCK), the Efflux ratio was 1.72. Besides, on human P-gp (MDR1), the Papp A→B at 2 h, 1 μmol/L was determined as 13.8 ± 3.2 ×10⁻⁶ cm/s; the Papp B→A at 2 h, 1 μmol/L is 23.7 ± 0.7 ×10⁻⁶ cm/s; the efflux ratio at 2 h, 1 μmol/L is less than 2. In series [1], this compound gave a Vd of 6.45 ± 0.64 L/kg, a clearance of 95.9 ± 11.2 mL/min/kg and a half-life of 1.02 ± 0.05 h. In addition, in series [4], the Papp A→B at 2 h, 5 μmol/L amounted to 16 ± 1.8 ×10⁻⁶ cm/s; the Papp B→A at 2 h, 5 μmol/L is 17.4 ± 1.4 ×10⁻⁶ cm/s; the efflux ratio at 2 h, 5 μmol/L is less than 2. Moreover, the Efflux ratio in the series on Caco‐2 cell line is on record as 1.09. Besides, in series [5], the Papp A→B at 2 h, 1 μmol/L was 19 ± 3.1 ×10⁻⁶ cm/s; the Papp B→A at 2 h, 1 μmol/L is 10.9 ± 2.6 ×10⁻⁶ cm/s; the Papp at 2 h, 1 μmol/L turned out to be 15 ± 5.1 ×10⁻⁶ cm/s. The compound further yielded a concentration at 6 h in [3] of 954 ± 91 nM. Also, in series [6], the Efflux transporter substrate entry is given as “No”; the “Class” value was “Class I”.

In series [1], `CC1COc2c(N3CCN(C)CC3)c(F)cc3c(=O)c(C(=O)O)cn1c23` (stereo not shown) [Ofloxacin, ofloxacin] had a Vd of 5.08 ± 2.99 L/kg, a clearance of 32.5 ± 4.9 mL/min/kg and a half-life of 6.32 ± 3.34 h. Moreover, the concentration at 6 h in series [3] amounted to 678 ± 293 nM.

Consider `Nc1nc(O)c2ncn(COC(CO)CO)c2n1` [Ganciclovir, ganciclovir], for which, in series [1], the Vd is 0.852 ± 0.159 L/kg, the clearance was 21.5 ± 1.4 mL/min/kg and the half-life is 1.35 ± 0.04 h. For the same compound, the concentration at 6 h in series [3] is 2230 ± 960 nM.

The Vd is a proportionality between amount in the body and measured concentration, not a real space. Low readings indicate little distribution into tissue, high ones wide distribution into tissue. By clearance is commonly meant the rate of elimination divided by the concentration. A low value points to inefficient removal. The term half-life denotes how long it takes for the measured level to halve. Low readings indicate rapid decline, high ones slow decline. What is called Papp A→B is the apparent permeability from the apical to the basolateral side of a cell layer. For orientation: Papp B→A means how fast a substance crosses the layer from the basolateral side. The term efflux ratio denotes a quotient of directional permeabilities that is used to spot active efflux. A word on the Papp: it is a coefficient for how fast a substance crosses the barrier.
